Series [1] deals with human histiocytic lymphoma cell line (U937). The series is described as follows: U937 cell proliferation assay (methyl-3H thymidine incorporation). It is filed as cell-based. The settings on record: Homo sapiens, U-937, U937 cells; test compound 6 μM; 72 hours in culture, 3 hours pulse; control DMSO 0.08%; n=6. As to the method: The compounds of examples 1 to 10 were tested the following cell proliferation assay, to determine their respective capacities to inhibit proliferation.
A human histiocytic lymphoma cell line (U937) was seeded into 30 mm^2 tissue culture wells, in the appropriate culture medium supplemented with 10% fetal calf serum at a density of 250 cells/mm^2. Six hours later the test compounds were added in the same culture medium to the cells to give a final concentration of 6 μM. Control wells contained cells supplemented with the same culture medium containing the equivalent amount of drug vehicle, which in this case was DMSO at a final concentration of 0.08%. After 72 hours in culture the cells were pulsed for 3 hours with methyl-^3H Thymidine (20 μCi/ml) and then harvested onto filter mats and DNA associated radioactivity counted. Results are expressed as percentage of control methyl-^3H Thydimine incorporation (n=6±1 stdv).

As to `CCCC[C@H](CN(O)C=O)C(=O)N[C@H](C(=O)OC)C(C)(C)C` [Example 5, 2S-{2R-[(Formyl-hydroxy-amino)-methyl]-hexanoylamino}-3,3-dimethyl Butyric Acid Methyl Ester], the melting point was in the range of 63.5 to 64.5 °C. In series [1], this compound gave an activity at 6 µM of 86%.
As to `CCCC[C@H](CN(O)C=O)C(=O)N[C@H](C(=O)OCC)c1ccccc1` [Example 10, 2S-{2R-[(Formyl-hydroxy-amino)-methyl]-hexanoylamino}-2-phenyl Acetic Acid Ethyl Ester], the melting point lay in the range of 134 to 136 °C. For the same compound, in series [1], the activity at 6 µM came to 7%.
Compound `CCCC[C@H](CN(O)C=O)C(=O)N[C@H](C(=O)OC(C)C)c1ccccc1` [Example 11, S-{2R-[(Formyl-hydroxy-amino)-methyl]-hexanoylamino}-2-phenyl Acetic Acid Iso-Propyl Ester] displayed a melting point of 142 to 145 °C. The same compound gave an activity at 6 µM in series [1] of 36%.
Regarding `CCCC[C@H](CN(O)C=O)C(=O)N[C@H](C(=O)OCC)C(C)(C)C` [Example 12, 2S-{2R-[(Formyl-hydroxy-amino)-methyl]-hexanoylamino}-3,3-dimethyl Butyric Acid Ethyl Ester], the melting point is 85 to 87 °C. The same compound came in with an activity at 6 µM in series [1] of 77%.
In turn, `CCCC[C@H](CN(O)C=O)C(=O)N[C@H](C(=O)OC1CCCC1)c1ccccc1` [Example 13, S-{2R-[(Formyl-hydroxy-amino)-methyl]-hexanoylamino}-2-phenyl Acetic Acid Cyclo-Pentyl Ester] had a melting point of 119 to 120 °C.
`CCCC[C@H](CN(O)C=O)C(=O)N[C@@H](Cc1ccccc1)C(=O)OC(C)(C)C` [Example 22, 2S-{2R-[(Formyl-hydroxy-amino)-methyl]-hexanoylamino}-3-phenyl-propionic Acid Tert-Butyl Ester] came in with a melting point of 95 to 98 °C. The same compound came in with an activity at 6 µM in series [1] of 53%.
In series [1], `CCC[C@@H]([C@@H](CC(C)C)C(=O)N[C@H](C(=O)OC1CCCC1)c1ccccc1)N(O)C=O` [Example 33, S-[3S-(Formyl-hydroxy-amino)-2R-isobutyl-hexanoylamino]-phenyl-acetic Acid Cyclopentyl Ester] displayed an activity at 6 µM of 0%.
